Earlier results, collected in US20040072746A1, “Inhibitors of monocarboxylate transport” (priority 2001, published 2004).

Molecular target: T1, rat MCT1 (Rattus norvegicus, UniProt P53987)
T1 sequence (P53987 1-494): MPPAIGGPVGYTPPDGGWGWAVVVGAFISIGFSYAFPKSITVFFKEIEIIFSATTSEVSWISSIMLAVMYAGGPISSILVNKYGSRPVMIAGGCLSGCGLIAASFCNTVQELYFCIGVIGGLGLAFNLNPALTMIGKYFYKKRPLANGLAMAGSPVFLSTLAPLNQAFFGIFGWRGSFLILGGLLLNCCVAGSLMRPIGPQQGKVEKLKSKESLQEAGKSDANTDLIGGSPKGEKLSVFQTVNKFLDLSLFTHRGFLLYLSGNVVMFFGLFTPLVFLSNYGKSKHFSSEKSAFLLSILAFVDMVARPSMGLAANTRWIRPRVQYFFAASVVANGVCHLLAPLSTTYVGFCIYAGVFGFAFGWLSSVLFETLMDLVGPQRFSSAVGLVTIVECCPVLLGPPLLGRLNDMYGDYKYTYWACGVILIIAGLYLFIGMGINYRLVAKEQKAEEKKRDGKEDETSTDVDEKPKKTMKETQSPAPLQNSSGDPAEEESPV
Conditions: cited from earlier work

Row | SMILES | IC50 [µM]
1 | O=C(CCc1ccc(O)cc1)c1c(O)cc(O)cc1O [phloretin] | 1
2 | N#CC(=Cc1ccc(O)cc1)C(=O)O [CHC, α-cyano-4-hydroxycinnamate] | 27
3 | O=S(=O)(O)c1cc(N=C=S)ccc1C=Cc1ccc(N=C=S)cc1S(=O)(=O)O [DIDS, 4,4′-di-isothiocyanatostilbene-2,2′-disulphonate] | 50
